Experimental data published in US6147077A, “2R,4S-hydroxyitraconazole isomers” (priority 1999, dated 2000).
Values after ≈ are worked out from the molar mass of the structure shown. “Also recorded” adds a separate entry of the source. Read-outs that look alike come from different tables or passages of the source.

Tests used:
[1] = test system: Sacchromyces cerevisae; test: Kirby-Bauer Testing, Saccharomyces cerevisiae; type: cell-based; conditions: Saccharomyces cerevisiae, 10 μl of 10 mg/mL per disk, 30° C., 16 hours
Method: The hydroxyitraconazole isomers were tested for biological activity according three different assays.
Actively growing cultures of Candida albicans, Cryptococcus neoformens and Saccharomyces cerevisiae were prepared as described above. The cultures were diluted to a 0.5 McFarland standard and swabbed onto a 150 mm Sabouraud Dextrose agar plates. Paper disks (7 mm) were placed onto the agar plates using a disk dispenser. […] The plates were then incubated at 30° C. for 16 hours. Zones of inhibition were then measured in mm.

[2] = test system: Candida albicans; test: Antifungal MIC, Candida albicans; type: cell-based; conditions: Candida albicans
Method: (§1) A 10 mL tube containing 4 mL of Sabourauds dextrose broth was inoculated with 1 colony of Candida albicans picked from a plate of pure culture. The strain was ordered from the American Type Culture Collection (ATCC). The organism was grown for 4 hours at 30° C. while shaking at 150 RPM. While the organism was growing, samples of hydroxy-itraconazoles were solubilized to a concentration of 10 mg/mL in DMSO. Each sample was then diluted 1:10 to make 1 mg/mL samples or 1000 μg/mL. These samples were then diluted by serial 2-fold dilutions to produce samples now containing 1000, 500, 250, 125, 62.5, 31.25, 15.6 μg/mL. […] At 4 hours of growth time the Candida albicans was diluted to a 0.5 McFarland standard representing about 10^5 -10^6 cells/mL and 1 μL of this inoculum placed into each test well of the microtiter dish. The dish was then covered and incubated at 30° C. for 16 hours.

[3] = Water solubility of hydroxyitraconazole isomers and itraconazole; type: physicochemical
Method: The isomers of cis hydroxyitraconazole were tested for water solubility against a […] standard solution of hydroxyitraconazole. […] The values for 3+4 and 11+12 are barely above the LOD, giving accuracies of ±10%. In every case, solubilities were in the 10^1 to 10^2 ng/ml range.

[4] = cited from earlier work
[5] = cited from earlier work; remark: listed apart in the source
[6] = test system: fungi and bacteria; conditions: cited from earlier work
[7] = test system: synthesis of ergosterol; conditions: cited from earlier work
[8] = test system: Candida albicans; test: Kirby-Bauer Testing, Candida albicans; type: cell-based; conditions: 10 μl of 10 mg/mL per disk, 30° C., 16 hours
Method: The hydroxyitraconazole isomers were tested for biological activity according three different assays. Table 2 summarizes the results of Kirby-Bauer Testing against three actively growing cultures: Candida albicans, Cryptococcus neoformens and Saccromyces cerevisiae. […] A 10 mL tube containing 4 mL of Sabourauds dextrose broth was inoculated with 1 colony of Candida albicans picked from a plate of pure culture. The strain was ordered from the American Type Culture Collection (ATCC). The organism was grown for 4 hours at 30° C. while shaking at 150 RPM. While the organism was growing, samples of hydroxy-itraconazoles were solubilized to a concentration of 10 mg/mL in DMSO. Each sample was then diluted 1:10 to make 1 mg/mL samples or 1000 μg/mL. […] A 96-well microtiter dish was set up with 98 μL of liquid growth media in each test well, along with 1 μL of hydroxy-itraconazole solution. At 4 hours of growth time the Candida albicans was diluted to a 0.5 McFarland standard representing about 10^5 -10^6 cells/mL and 1 μL of this inoculum placed into each test well of the microtiter dish. The dish was then covered and incubated at 30° C. for 16 hours. Actively growing cultures of Candida albicans, Cryptococcus neoformens and Saccharomyces cerevisiae were prepared as described above. […] Zones of inhibition were then measured in mm.

[9] = test system: Cryptococcus neoformens; test: Kirby-Bauer Testing, Cryptococcus neoformens; type: cell-based; conditions: 10 μl of 10 mg/mL per disk, 30° C., 16 hours
Method: The hydroxyitraconazole isomers were tested for biological activity according three different assays. Table 2 summarizes the results of Kirby-Bauer Testing against three actively growing cultures: Candida albicans, Cryptococcus neoformens and Saccromyces cerevisiae.
Actively growing cultures of Candida albicans, Cryptococcus neoformens and Saccharomyces cerevisiae were prepared as described above. The cultures were diluted to a 0.5 McFarland standard and swabbed onto a 150 mm Sabouraud Dextrose agar plates. Paper disks (7 mm) were placed onto the agar plates using a disk dispenser. Next 10 μl of 10 mg/mL solutions of each sample hydroxy-itraconazole was pipetted onto separate paper disks. The plates were then incubated at 30° C. for 16 hours. Zones of inhibition were then measured in mm.

[10] = test system: Aspergillis; test: Kirby-Bauer Testing, Aspergillis; type: cell-based; conditions: 16 h, 10 μl of 10 mg/mL per disk
[11] = test system: Cr. neoformens; test: Antifungal MIC, Cr. neoformens; type: cell-based, Cryptococcus neoformens; conditions: Cryptococcus; Cr. neoformens (Table 3)
Method: [The source words this procedure for another organism and reports this organism under the same test.] as §1

[12] = test system: S. cerevisae; test: Antifungal MIC, S. cerevisae; type: cell-based, Saccharomyces cerevisiae; conditions: Saccharomyces cerevisiae; S. cerevisae (Table 3)
Method: [The source words this procedure for another organism and reports this organism under the same test.] as §1

[13] = test system: A. fumigatis; test: Antifungal MIC, A. fumigatis; type: cell-based; conditions: A. fumigatis (Table 3)
Method: [The source words this procedure for another organism and reports this organism under the same test.] as §1

[14] = Water solubility of hydroxyitraconazole phosphate isomers (NMG salts); type: physicochemical; conditions: water; Table 8
Text: The water solubility of the NMG salts of the phosphate esters of isomers 1, 2 and 3+4 were investigated and compared to the corresponding hydroxyitraconazole isomers 1, 2 and 3+4. The phosphate esters were as much as 10^7 times more water soluble than the corresponding hydroxyitraconazole isomer.

[15] = biological target: T1, cytochrome P450 3A4 (Homo sapiens, UniProt P08684)
T1 sequence (P08684 whole entry): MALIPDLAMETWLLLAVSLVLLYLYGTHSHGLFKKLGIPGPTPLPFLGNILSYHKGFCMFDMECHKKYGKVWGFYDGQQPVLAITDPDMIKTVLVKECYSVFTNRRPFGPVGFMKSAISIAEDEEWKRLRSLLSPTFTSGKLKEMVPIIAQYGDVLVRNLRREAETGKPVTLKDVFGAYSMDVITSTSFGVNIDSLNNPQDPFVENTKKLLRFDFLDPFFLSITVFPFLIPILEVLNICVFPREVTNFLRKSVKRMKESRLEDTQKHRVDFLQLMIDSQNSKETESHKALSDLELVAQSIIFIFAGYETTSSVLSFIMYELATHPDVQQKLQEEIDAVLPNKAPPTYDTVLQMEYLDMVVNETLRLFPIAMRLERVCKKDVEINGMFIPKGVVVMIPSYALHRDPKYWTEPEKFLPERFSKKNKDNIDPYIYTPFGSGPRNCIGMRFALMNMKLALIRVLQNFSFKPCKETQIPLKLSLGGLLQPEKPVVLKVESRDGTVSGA
Method: (§2) The IC50 values were determined by the appearance of 6β-hydroxytestosterone after incubation with testosterone. […] Of greater clinical significance is the ratio of the IC50 for 3A4 to the MIC for C. albicans 44203.

[16] = biological target: T1, cytochrome P450 3A4; test: Inhibition of cytochrome P450 3A4 (testosterone 6β-hydroxylase activity)
Method: as §2

Question: For CCC(C)n1ncn(-c2ccc(N3CCN(c4ccc(OC[C@H]5CO[C@](Cn6cncn6)(c6ccc(Cl)cc6Cl)O5)cc4)CC3)cc2)c1=O (relative stereo) [itraconazole, 4-[4-[4-[4-[[2-(2,4-dichlorophenyl)-2-(1H-1,2,4-triazol-1-ylmethyl)-1,3-dioxolan-4-yl]methoxy]phenyl]-1-piperazinyl]phenyl]-2,4-dihydro-2-(1-methylpropyl)-3H-1,2,4-triazol-3-one], which zone of inhibition at 10000 µg/mL [1] is on record?
Answer: 15 mm

Question: And the MIC [2]?
Answer: 0.06 µg/mL (≈ 0.085 µM)

Question: What about the Water solubility ([3]; LOD: 5000 μV*sec, order-of-magnitude accuracy below LOD, 3+4 and 11+12 ±10%, listed as Itraconazole) of the same compound?
Answer: such low water solubility that it could not be determined by this method

Question: And the Water solubility ([3]; LOD: 5000 μV*sec, order-of-magnitude accuracy below LOD, 3+4 and 11+12 ±10%, listed as ±Itraconazole)?
Answer: not detected

Question: What about the “Urinary excretion of metabolites” value ([4]; in most subjects) of the same compound?
Answer: no metabolites are excreted in the urine

Question: And the “Absorption following oral administration” value ([4]; oral)?
Answer: slowly absorbed

Question: What about the Pharmacokinetic behavior ([4]; oral) of the same compound?
Answer: nonlinear

Question: What about the Adverse effects ([5]; administration of itraconazole) of the same compound?
Answer: hepatotoxicity and inhibition of drug metabolism in the liver; also recorded: Hypersensitivity reactions including urticaria and elevations in serum liver enzymes

Question: What about the “Torsades de Pointes” value ([5]; racemic itraconazole concurrently with terfenadine) of the same compound?
Answer: Torsades de Pointes, has been reported

Question: What about the “Effect of serum on antifungal activity” value ([6]; Sabouraud broth containing 10% inactivated bovine serum) of the same compound?
Answer: enhanced in vitro

Question: And the Inhibition of growth ([6]; Sabouraud broth, 14 days, Microsporum canis, Trichophyton mentagrophytes, Candida albicans, Aspergillus spp. and others)?
Answer: Complete or marked inhibition of growth

Question: What about the “Effect on synthesis of ergosterol” value [7] of the same compound?
Answer: impairs the synthesis of ergosterol

Question: Which results are given for C[C@@H](O)[C@H](C)n1ncn(-c2ccc(N3CCN(c4ccc(OC[C@H]5CO[C@](Cn6cncn6)(c6ccc(Cl)cc6Cl)O5)cc4)CC3)cc2)c1=O [Compound 1]?
Answer: zone of inhibition at 10000 µg/mL [8]: 22 mm; zone of inhibition at 10000 µg/mL [9]: 28 mm; zone of inhibition at 10000 µg/mL [10]: 27 mm; zone of inhibition at 10000 µg/mL [1]: 22 mm; MIC ([2]; C. albicans strain 10231 (Table 3), read-out: Antifungal MIC): 1 µg/mL (≈ 1.39 µM); MIC ([2]; C. albicans strain 28516 (Table 3), read-out: Antifungal MIC): 0.25 µg/mL (≈ 0.346 µM); MIC ([2]; C. albicans strain 28815 (Table 3), read-out: Antifungal MIC): 0.125 µg/mL (≈ 0.173 µM); MIC ([2]; C. albicans strain 44203 (Table 3), read-out: Antifungal MIC): 0.05 µg/mL (≈ 0.0693 µM); MIC ([2]; C. albicans strain 44373 (Table 3), read-out: Antifungal MIC): 0.5 µg/mL (≈ 0.693 µM); MIC ([2]; C. albicans strain 62342 (Table 3), read-out: Antifungal MIC): 0.5 µg/mL (≈ 0.693 µM); MIC ([2]; Candida albicans strain 44203 (Table 4), read-out: MIC): 0.05 µg/mL (≈ 0.0693 µM); MIC [11]: 0.39 µg/mL (≈ 0.54 µM); MIC [12]: 0.195 µg/mL (≈ 0.27 µM); MIC [13]: 0.137 µg/mL (≈ 0.19 µM); solubility ([3]; water, LOD: 5000 μV*sec, order-of-magnitude accuracy below LOD, 3+4 and 11+12 ±10%): 0.051 µg/mL (≈ 0.0707 µM); Area ([3]; λmax = 260 nm, LOD 5000 μV*sec): 1499 μV*sec; solubility [14]: 0.051 µg/mL; Inhibition of P450 3A4 in words [15]: notably less inhibition of the P450 3A4 enzyme than the 2S,4R isomers; IC50 [16]: 2800 nM; selectivity ratio [16]: 56; IC50/MIC ratio in words ([16]; therapeutic index, 3A4 vs C. albicans 44203): excellent results
